# Results from patent US20210085739A1, “ANTIPLATELET ACTIVITY OF THE ACANTHUS MOLLIS SEEDS' TOTAL EXTRACT AND ITS CONSTITUENTS” (priority 2017, published 2021).
# Experiments:
# [1] = tested on: platelet aggregation induced by TRAP-6; assay: Light Transmittance Aggregometry in human PRP, agonist TRAP-6 (10 μM); assay type: cell-based; details: each agent 1 mg/mL, combinations at mass ratios 1:1 or 1:1:1
# Description: (§1) The effect of methanol extract on platelet aggregation in vitro was extensively studied in human Platelet Rich Plasma (PRP) from healthy volunteers, using Light Transmittance Aggregometry (LTA), as we previously described (Mitsios J V, et al. Eur J Biochem. 2004; 271:855-862). PRP was activated by arachidonic acid (AA; 0.5 mM), Thrombin Receptor Activating Peptide-6 (TRAP-6; 10 μM) and ADP (10 μM), as agonists. Samples were prepared by evaporating the methanol under nitrogen and then by dissolving the residue in DMSO. The maximal aggregation, achieved within 4 min after the addition of each agonist, was determined and expressed as a percentage of 100% light transmission calibrated for each specimen (% maximal aggregation). The inhibitory efficacy of the seeds extract expressed as IC50 value (half maximal inhibitory concentration). All values derived from at least three independent experiments performed for each platelet agonist, using 3 different methanol extract preparations (prepared as described above) and are expressed as the mean±standard deviation (S.D.). The final concentration of DMSO in each assay was 0.01% by volume.
# (§2) Each fraction was dissolved in DMSO and used at a final concentration of 1 mg/mL. Standards of Verbascoside and Isoverbascoside were also dissolved in DMSO and used at a final concentration of 1 mg/mL. […] This concentration was not much lower to that of the total extract 0.25 mg/mL (as it would expected, since we used a purified fraction from the total extract that expresses the inhibitory activity towards AA-induced platelet aggregation). Therefore, we used a combination of fraction 1 with fraction 2 or 3 (at mass ratios of 1:1) or a combination of the 3 fractions (at mass ratios of 1:1:1).
# Next we evaluated the biological effect of the three fractions towards platelet aggregation induced by TRAP-6.
# [2] = tested on: platelet aggregation induced by AA; assay: Light Transmittance Aggregometry in human PRP, agonist arachidonic acid (AA; 0.5 mM); assay type: cell-based; details: for inhibition of AA-induced platelet aggregation (FIG. 5A, 6A): each agent 1 mg/mL, combinations at mass ratios 1:1 or 1:1:1
# Description: as §1, §2
SMILES,"inhibition of TRAP-6-induced platelet aggregation (FIG. 5B, 6B) [1]","inhibition of AA-induced platelet aggregation (FIG. 5A, 6A) [2]","threshold concentration (the lower concentration that induces the maximum inhibitory effect), AA-induced platelet aggregation [2] [mg/mL]"
C[C@@H]1O[C@@H](O[C@@H]2[C@@H](O)[C@H](OCCc3ccc(O)c(O)c3)O[C@H](CO)[C@H]2OC(=O)/C=C/c2ccc(O)c(O)c2)[C@H](O)[C@H](O)[C@H]1O [Verbascoside],only Isoverbascoside inhibited platelet aggregation,do not inhibit platelet aggregation,–
"O=C1C(O[C@@H]2O[C@H](CO)[C@@H](O)[C@H](O)[C@H]2O)Oc2ccccc2N1O (stereo partly drawn) [fraction 1, 2-O-β-D-glucopyranosyl-4-hydroxy-1,4-benzoxazin-3-one]",no inhibitory activity,inhibited platelet aggregation,0.2
C[C@@H]1O[C@@H](O[C@@H]2[C@@H](O)[C@H](OCCc3ccc(O)c(O)c3)O[C@H](COC(=O)/C=C/c3ccc(O)c(O)c3)[C@H]2O)[C@H](O)[C@H](O)[C@H]1O [Isoverbascoside],inhibited platelet aggregation,do not inhibit platelet aggregation,–
